Test [1] deals with T1, Cytochrome P450 11B1, mitochondrial (Rattus norvegicus, UniProt P15393).
T1 sequence (P15393 whole entry): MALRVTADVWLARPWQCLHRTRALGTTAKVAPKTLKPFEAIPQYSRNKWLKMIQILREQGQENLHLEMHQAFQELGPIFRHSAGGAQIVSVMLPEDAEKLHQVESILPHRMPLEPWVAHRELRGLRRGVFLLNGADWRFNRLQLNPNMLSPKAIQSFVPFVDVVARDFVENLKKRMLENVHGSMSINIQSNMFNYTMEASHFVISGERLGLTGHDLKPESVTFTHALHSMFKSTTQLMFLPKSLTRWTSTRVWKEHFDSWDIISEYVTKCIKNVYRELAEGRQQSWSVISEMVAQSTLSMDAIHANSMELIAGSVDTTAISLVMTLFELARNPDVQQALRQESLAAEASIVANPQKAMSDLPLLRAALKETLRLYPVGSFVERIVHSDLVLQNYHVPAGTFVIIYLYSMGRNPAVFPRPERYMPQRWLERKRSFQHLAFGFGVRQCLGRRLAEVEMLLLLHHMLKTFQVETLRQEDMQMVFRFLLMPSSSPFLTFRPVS
As to the kind of experiment: Inhibition of 11 beta-hydroxylase from rat adrenal gland. The test is classed as tissue-based.

Test [2] has as its target T2, Thromboxane-A synthase (Homo sapiens, UniProt P24557).
T2 sequence (P24557 whole entry): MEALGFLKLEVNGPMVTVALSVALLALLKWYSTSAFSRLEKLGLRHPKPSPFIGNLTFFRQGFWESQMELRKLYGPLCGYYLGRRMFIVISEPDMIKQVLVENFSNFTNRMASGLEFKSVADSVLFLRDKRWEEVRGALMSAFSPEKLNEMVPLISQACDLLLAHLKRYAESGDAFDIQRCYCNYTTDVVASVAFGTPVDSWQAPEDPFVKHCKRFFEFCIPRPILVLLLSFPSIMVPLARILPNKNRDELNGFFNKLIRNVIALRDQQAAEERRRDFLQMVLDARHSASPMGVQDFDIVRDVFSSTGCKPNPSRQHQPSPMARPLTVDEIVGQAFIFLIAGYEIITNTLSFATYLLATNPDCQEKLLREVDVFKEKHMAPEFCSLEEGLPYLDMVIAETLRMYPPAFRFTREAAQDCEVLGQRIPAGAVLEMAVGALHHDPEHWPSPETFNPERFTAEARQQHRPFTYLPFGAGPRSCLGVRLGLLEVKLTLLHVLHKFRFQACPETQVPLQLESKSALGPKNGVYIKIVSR
As to the kind of experiment: Inhibition of TXA2 synthetase from human platelets.

The target of test [3] is T3, Prostaglandin G/H synthase (cyclooxygenase) (Ovis aries, UniProt P05979+P79208).
T3 sequence (P05979 whole entry): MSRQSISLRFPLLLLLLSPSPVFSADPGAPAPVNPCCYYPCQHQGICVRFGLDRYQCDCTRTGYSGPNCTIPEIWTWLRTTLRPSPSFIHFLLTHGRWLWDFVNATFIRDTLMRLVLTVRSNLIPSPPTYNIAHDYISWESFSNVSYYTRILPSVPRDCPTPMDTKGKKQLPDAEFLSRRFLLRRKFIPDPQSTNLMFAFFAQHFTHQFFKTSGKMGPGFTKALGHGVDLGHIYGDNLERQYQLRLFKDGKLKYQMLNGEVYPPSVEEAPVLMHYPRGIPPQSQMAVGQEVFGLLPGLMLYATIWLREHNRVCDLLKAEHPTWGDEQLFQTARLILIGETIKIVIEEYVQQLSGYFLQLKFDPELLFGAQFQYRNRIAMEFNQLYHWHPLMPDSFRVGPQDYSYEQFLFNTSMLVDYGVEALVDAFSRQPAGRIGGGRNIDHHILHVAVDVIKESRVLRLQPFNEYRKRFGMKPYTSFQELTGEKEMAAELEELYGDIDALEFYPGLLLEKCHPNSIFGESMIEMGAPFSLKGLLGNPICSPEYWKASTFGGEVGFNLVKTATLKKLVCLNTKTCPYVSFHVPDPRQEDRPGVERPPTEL
T3 sequence (P79208 whole entry): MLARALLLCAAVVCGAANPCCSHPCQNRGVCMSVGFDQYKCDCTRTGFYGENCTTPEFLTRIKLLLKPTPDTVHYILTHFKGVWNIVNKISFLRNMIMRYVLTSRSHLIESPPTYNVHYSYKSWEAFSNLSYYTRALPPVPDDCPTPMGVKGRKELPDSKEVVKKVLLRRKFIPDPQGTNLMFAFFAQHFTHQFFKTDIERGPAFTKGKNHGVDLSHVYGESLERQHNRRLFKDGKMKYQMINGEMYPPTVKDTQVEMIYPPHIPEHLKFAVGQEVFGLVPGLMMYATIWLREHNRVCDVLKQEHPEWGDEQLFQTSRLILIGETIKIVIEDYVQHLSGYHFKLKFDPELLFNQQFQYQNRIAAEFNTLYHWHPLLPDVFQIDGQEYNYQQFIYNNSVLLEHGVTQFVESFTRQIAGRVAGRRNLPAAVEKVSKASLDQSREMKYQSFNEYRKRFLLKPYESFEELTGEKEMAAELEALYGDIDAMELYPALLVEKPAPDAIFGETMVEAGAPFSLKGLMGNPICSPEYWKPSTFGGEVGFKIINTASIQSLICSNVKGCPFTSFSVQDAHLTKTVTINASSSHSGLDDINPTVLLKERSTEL
In words: Inhibition of Prostaglandin G/H synthase from ram seminal vesicle microsomes.

Take `CC(C)c1c(Cn2ccnc2)c2ccccc2n1CCC(=O)O`: the values for the IC50 in test [1] and in test [2] were above 10 µM and 8.2 nM, respectively.
In the case of `O=C(O)CCn1c(C2CC2)c(Cn2ccnc2)c2ccccc21`, the IC50 in test [2] is 4.9 nM.
The same measure, in the same setting: the result for `FC(F)(F)c1ccc2c(Cn3ccnc3)c[nH]c2c1` reads 4600 nM.
On the same count and under the same terms, the result for `Cc1c(Cn2ccnc2)c2ccccc2n1/C=C/C(=O)O` reads 70 nM.
Take `CCn1cc(Cn2ccnc2)c2ccccc21`: the figures for the IC50 in test [1], in test [2] and in test [3] were 10 µM, 8.4 nM and above 0.0001 M, respectively.
In the case of `c1ccc2c(Cn3ccnc3)c[nH]c2c1`, the IC50 in test [1] is 10 µM; in test [2], 25 nM; in test [3], above 0.001 M.
In the case of `O=C(O)CCn1cc(Cn2ccnc2)c2ccc(C(F)(F)F)cc21`, the IC50 in test [2] is 10 nM.
Still for that read-out and setting: the result for `O=C(O)CCn1cc(Cn2ccnc2)c2cc(Br)ccc21` reads 12 nM.
As to `Clc1ccc2[nH]cc(Cn3ccnc3)c2c1`, the IC50 in test [2] came to 3000 nM.
In test [2], `CN(C)c1ccc2c(c1)c(Cn1ccnc1)cn2CCC(=O)O` came in with an IC50 of 82 nM.
Regarding `O=C(O)Cn1cc(Cn2ccnc2)c2ccccc21`, the results for the IC50 in test [2] and in test [3] were 30 nM and above 0.0001 M, respectively.
Consider `O=C(O)CCn1cc(Cn2ccnc2)c2ccccc21`, for which the results for the IC50 in test [1], in test [2] and in test [3] were above 10 µM, 19 nM and above 0.0001 M, respectively.
`CC(C)c1[nH]c2ccccc2c1Cn1ccnc1`: the IC50 in test [3] is listed as above 0.0001 M.
In test [2], `Cc1ccc2c(c1)c(Cn1ccnc1)cn2CCC(=O)O` came in with an IC50 of 42 nM. This counts as double-digit nanomolar.
Same read-out and setting: next, `O=C(O)CCn1cc(Cn2ccnc2)c2cc(Cl)ccc21`: 21 nM; `COc1ccc2c(c1)c(Cn1ccnc1)cn2CCC(=O)O`: 43 nM.
Regarding `Cc1c(Cn2ccnc2)c2ccccc2n1CCC(=O)O` [DAZMEGREL], the values for the IC50 in test [1], in test [2] and in test [3] were above 100 µM, 28 nM and above 0.0001 M, respectively.
`O=C(O)c1ccc(OCCn2ccnc2)cc1` [DAZOXIBEN]: the IC50 in test [1] was above 100 µM.

A word on the IC50: it is the concentration needed to halve the response being measured. A high value points to lower potency.

The values above are taken from ChEMBL document CHEMBL1123410, “Selective thromboxane synthetase inhibitors. 2. 3-(1H-imidazol-1-ylmethyl)-2-methyl-1H-indole-1-propanoic acid and analogues” (J Med Chem, 1986).
